In US20120021434A1, “METHOD FOR TREATING B CELL REGULATED AUTOIMMUNE DISORDERS” (Synta Pharmaceuticals Corp., priority 2005, published 2012):

Legend:
Assay type in all cases: cell-based
IκBβ = assay: Inducible degradation of IκBβ (Western blot and FACS); details: IFN-γ/LPS or IFN-γ/SAC, 500 nM, 30 min and 2 hrs
Protocol: IκB degradation is one of the steps in the signaling pathway of NF-κB dependent genes. The activity of Compound 50 in inducible degradation of IκBα and IκBβ was investigated in THP-1 cells using Western blot and FACS analysis. […] Similar results were observed from the Compound 50 pre-treatment samples in which Compound 50 was added 30 min before stimulation.

[1] = tested on: purified mouse splenic (CD19+) B cells; assay: Primary mouse B cell survival, Annexin V/propidium iodide flow cytometry; details: 24 h; for viability at 0.0001 µM / viability at 0.001 µM / viability at 0.01 µM / viability at 0.1 µM / viability at 1 µM: Mus musculus, B-cell
Protocol: Therefore, the effect of Compound 50 on the activation and survival of homogeneous populations of primary B and T lymphocytes has been explored. As a first step in this process, we evaluated the effect of Compound 50 on the survival of purified mouse splenic (CD19^+) B cells. When cultured ex vivo, primary B cells undergo spontaneous apoptosis within 24-48 h in the absence of any survival signals. Examples of such stimuli include those mediated by anti-CD40 (or CD40L), BAFF, or B cell receptor signals provided by either anti-IgM or LPS. Murine primary B cells were isolated from mouse spleen using anti-CD19 coated magnetic beads (Miltenyi Biotec) according to the manufacturer's recommendations. Purified CD19^+ B cells were cultured at 100,000 cells/well in 96-well microtiter plates in culture medium (RPMI 1640 supplemented with 10% fetal bovine serum, 2 mM L-glutamine, 1 mM sodium pyruvate, 20 mM HEPES, and 55 μM β-mercaptoethanol) in the presence of 10 μg/ml anti-CD40, 5 μg/ml LPS or 100 ng/ml BAFF in the presence or absence of Compound 50 for 24 h and measured the frequency of viable and apoptotic cells using Annexin V/propidum iodide flow cytometric analysis. To perform this analysis, cells were washed with PBS and labeled with Annexin V-FITC and propidium iodide (BioVision) according to the manufacturer's instructions. Apoptotic cell (Annexin V-positive) and live cell (Annexin V-negative/propidium iodide-negative) percentages were determined using a flow cytometer.

p52 = p52 nuclear translocation in IFNγ+LPS-stimulated THP1 cells (immunoblot); details: 100 nM, 6 h
Protocol: RelB and p52 are two members of Rel family, which are preferentially complexed with each other. To determine the effect of Compound 50 on p52 and Rel-B nuclear translocation, THP1 cells were stimulated with IFNγ+LPS in either the presence or absence of 100 nM Compound 50 and the distribution of p52 and Rel-B was determined by immunoblotting of nuclear at 6 h post-treatment.

IKKβ = assay: Phosphorylation of IKKβ in IFNγ/LPS-stimulated THP-1 cells (immunoblot); details: THP-1 whole cell extracts, IFNγ/LPS 5 min to 1 hr, 500 nM
Protocol: The whole cell extracts were prepared using Cell Lysis Buffer (Cell Signaling, Beverly, Mass., USA) according to the manufacture's instruction.
The phosphorylation of IKK is an early step in NF-κB activation. To determine whether Compound 50 inhibits the activation of the IKK complex, the level of phosphorylated IKKβ was investigated in drug-treated, LPS-stimulated cells. Whole cell extracts were prepared from THP-1 cells that had been stimulated with IFNγ/LPS for 5 min, 15 min 30 min and 1 hr in the either the absence or presence of 500 nM Compound 50. Phosphorylated IKKβ was determined by immunoblot analysis using an anti-phospho IKKβ antibody. […] Compound 50 treatment had no effect on the induction of phosphorylated IKKβ.

c-Rel = molecular target: T1, c-Rel (Mus musculus, UniProt P15307); assay: Immunoblot and densitometry of nuclear c-Rel in LPS/IFNγ-stimulated Raw264.7 cells; details: Raw264.7, LPS/IFNγ, immunoblot densitometry
T1 construct: nuclear extracts from RAW cells stimulated with LPS/IFNγ; endogenous in cells; host or cells: RAW264.7
Protocol: Methods: 20×10^6 Raw 264.7 cells were treated with either DMSO, LPS/IFNγ, or LPS/IFNγ/Compound 50. (LPS conc. 1 ug/ml f.c.; mouse IFNγ mouse 100 U/ml f.c, Compound 501 uM f.c). (LPS: Sigma Cat # L2654. Mouse IFNγ; Cat # R+D 485-MICF). Cells were pre-treated with Compound 50 for 30 min, then LPS/IFNγ was added. After 3 hrs, nuclear and cytoplasmic extracts were prepared according to the BD™ TransFactor Extraction Kit and user manual. Briefly, cells were washed in PBS, harvested and lysed in hypotonic lysis buffer on ice. Cells were then disrupted by drawing the cell suspension through a No. 27 gauge needle 10 times. Next, the cell suspension was centrifuged, and the cytoplasmic extract (supernatant) was collected. The nuclear pellet was then disrupted by resuspension in high salt extraction buffer and was drawn through the needle 10 times. […]
After treatment with Compound 50, nuclear extract and cytoplasmic extract were prepared from 20×10^6 Raw264.7 cells by using Extraction kits from BD Biosciences (Cat. 631921), and above for experimental details. […] Densitometry analysis was performed using Quantity One software from BioRad.
The reduction in c-RelDNA-binding activity correlated with a 40-50% reduction in the levels of nuclear c-Rel as detected by immunoblot analysis (see immunoblot FIG. 14 and densitometry FIG. 15). […]

T1 sequence (P15307 whole entry): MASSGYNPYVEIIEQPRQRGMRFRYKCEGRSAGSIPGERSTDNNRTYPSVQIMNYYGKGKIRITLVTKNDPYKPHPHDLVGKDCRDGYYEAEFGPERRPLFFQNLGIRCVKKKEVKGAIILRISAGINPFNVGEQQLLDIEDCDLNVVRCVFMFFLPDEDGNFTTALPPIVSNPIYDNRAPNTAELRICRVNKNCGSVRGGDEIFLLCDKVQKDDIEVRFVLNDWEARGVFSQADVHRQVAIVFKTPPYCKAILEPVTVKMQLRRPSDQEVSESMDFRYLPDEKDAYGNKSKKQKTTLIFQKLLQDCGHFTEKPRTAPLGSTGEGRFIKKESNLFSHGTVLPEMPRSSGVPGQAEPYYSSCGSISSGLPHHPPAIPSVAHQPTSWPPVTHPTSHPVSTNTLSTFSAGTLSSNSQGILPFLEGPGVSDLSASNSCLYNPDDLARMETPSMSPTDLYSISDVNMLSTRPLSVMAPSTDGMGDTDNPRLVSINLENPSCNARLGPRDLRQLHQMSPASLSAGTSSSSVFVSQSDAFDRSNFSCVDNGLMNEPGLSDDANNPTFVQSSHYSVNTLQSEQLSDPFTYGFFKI

Q: How did the “amount of IκBβ in the cytoplasm, with vs without compound” value (IκBβ) turn out when `Cc1cccc(/C=N/Nc2cc(N3CCOCC3)nc(OCCc3ccccn3)n2)c1` [Compound 50, N-(3-Methyl-benzylidene)-N′-[6-morpholin-4-yl-2-(2-pyridin-2-yl-ethoxy)-pyrimidin-4-yl]-hydrazine] was run?
A: Its value is “no significant difference”.

Q: What about the “% Apoptotic” value ([1]; Anti-CD40 (10 μg/ml), 0.1 nM) of the same compound?
A: The value was 39%.

Q: What about the “% Apoptotic” value ([1]; Anti-CD40 (10 μg/ml), 1 nM) of the same compound?
A: The value was 37%.

Q: What about the “% Apoptotic” value ([1]; Anti-CD40 (10 μg/ml), 10 nM) of the same compound?
A: Its value is 46%.

Q: What about the “% Apoptotic” value ([1]; Anti-CD40 (10 μg/ml), 100 nM) of the same compound?
A: The value was 89%.

Q: And the “% Apoptotic” value ([1]; Anti-CD40 (10 μg/ml), 1000 nM)?
A: The value was 90%.

Q: And the “% Apoptotic” value ([1]; BAFF (100 ng/ml), 0.1 nM)?
A: Its value is 40%.

Q: What about the “% Apoptotic” value ([1]; BAFF (100 ng/ml), 1 nM) of the same compound?
A: The value was 43%.

Q: What about the “% Apoptotic” value ([1]; BAFF (100 ng/ml), 10 nM) of the same compound?
A: The value was 52%.

Q: What about the “% Apoptotic” value ([1]; BAFF (100 ng/ml), 100 nM) of the same compound?
A: The value was 92%.

Q: What about the “% Apoptotic” value ([1]; BAFF (100 ng/ml), 1000 nM) of the same compound?
A: Its value is 93%.

Q: And the “% Apoptotic” value ([1]; LPS (5 μg/ml), 0.1 nM)?
A: The value was 31%.

Q: What about the “% Apoptotic” value ([1]; LPS (5 μg/ml), 1 nM) of the same compound?
A: The value was 32%.

Q: And the “% Apoptotic” value ([1]; LPS (5 μg/ml), 10 nM)?
A: Its value is 44%.

Q: And the “% Apoptotic” value ([1]; LPS (5 μg/ml), 100 nM)?
A: The value was 79%.

Q: What about the “% Apoptotic” value ([1]; LPS (5 μg/ml), 1000 nM) of the same compound?
A: Its value is 79%.

Q: And the viability at 0.0001 µM ([1]; Anti-CD40 (10 μg/ml), 0.1 nM)?
A: The viability at 0.0001 µM was 55%.

Q: What about the viability at 0.001 µM ([1]; Anti-CD40 (10 μg/ml), 1 nM) of the same compound?
A: The viability at 0.001 µM was 51%.

Q: What about the viability at 0.01 µM ([1]; Anti-CD40 (10 μg/ml), 10 nM) of the same compound?
A: The viability at 0.01 µM was 48%.

Q: And the viability at 0.1 µM ([1]; Anti-CD40 (10 μg/ml), 100 nM)?
A: The viability at 0.1 µM was 5%.

Q: And the viability at 1 µM ([1]; Anti-CD40 (10 μg/ml), 1000 nM)?
A: The viability at 1 µM was 3%.

Q: What about the viability at 0.0001 µM ([1]; BAFF (100 ng/ml), 0.1 nM) of the same compound?
A: Its viability at 0.0001 µM is 55%.

Q: What about the viability at 0.001 µM ([1]; BAFF (100 ng/ml), 1 nM) of the same compound?
A: The viability at 0.001 µM was 52%.

Q: What about the viability at 0.01 µM ([1]; BAFF (100 ng/ml), 10 nM) of the same compound?
A: Its viability at 0.01 µM is 43%.

Q: And the viability at 0.1 µM ([1]; BAFF (100 ng/ml), 100 nM)?
A: The viability at 0.1 µM was 4%.

Q: And the viability at 1 µM ([1]; BAFF (100 ng/ml), 1000 nM)?
A: Its viability at 1 µM is 3%.

Q: And the viability at 0.0001 µM ([1]; LPS (5 μg/ml), 0.1 nM)?
A: Its viability at 0.0001 µM is 63%.

Q: And the viability at 0.001 µM ([1]; LPS (5 μg/ml), 1 nM)?
A: The viability at 0.001 µM was 63%.

Q: And the viability at 0.01 µM ([1]; LPS (5 μg/ml), 10 nM)?
A: The viability at 0.01 µM was 51%.

Q: And the viability at 0.1 µM ([1]; LPS (5 μg/ml), 100 nM)?
A: The viability at 0.1 µM was 15%.

Q: And the viability at 1 µM ([1]; LPS (5 μg/ml), 1000 nM)?
A: The viability at 1 µM was 13%.

Q: What about the B cells apoptotic ([1]; concentrations 100 nM, with anti-CD40, LPS or BAFF) of the same compound?
A: The B cells apoptotic was 80-90%.

Q: What about the “nuclear p52” value (p52) of the same compound?
A: The value was “No significant difference”.

Q: What about the “induction of phosphorylated IKKβ” value (IKKβ) of the same compound?
A: The value was “no effect”.

Q: What about the “reduction in the levels of nuclear c-Rel” value (c-Rel) of the same compound?
A: Its value is 40-50%.
